pEC50: −log10 of the molar value. Values joined by “and” are separate entries in the source; they are usually repeats but may differ in a detail not shown here. Identical values can stand only once. Like-named read-outs stand apart in the source and are kept apart here.
Target: hCB2 (Homo sapiens, UniProt P34972)
Assay: bioSensAll ebBRET signaling profiling, hCB2
Assay type: cell-based
Parameters: host or cells: HEK293SL cells, transient PEI transfection
Settings: for G13 hCB2 / G15 hCB2 / Gq hCB2 / Gs hCB2: raw signal; for pEC50: read-out: EC50 [95% CI]; for Emax: normalized to CP-55,940

Chain of hCB2 (P34972 whole entry): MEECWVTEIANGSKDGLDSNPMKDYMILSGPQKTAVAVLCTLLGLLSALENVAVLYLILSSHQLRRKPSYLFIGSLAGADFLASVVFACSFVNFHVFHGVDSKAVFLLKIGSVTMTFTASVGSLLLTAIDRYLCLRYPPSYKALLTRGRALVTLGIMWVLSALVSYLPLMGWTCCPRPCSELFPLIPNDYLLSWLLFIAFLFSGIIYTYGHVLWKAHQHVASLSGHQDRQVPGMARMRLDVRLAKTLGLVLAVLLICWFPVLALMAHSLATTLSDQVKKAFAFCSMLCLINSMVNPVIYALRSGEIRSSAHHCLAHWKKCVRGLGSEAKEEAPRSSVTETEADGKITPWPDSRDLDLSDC

COC(=O)C(C)(NC(=O)c1cc(C)n(-c2cccc(C(F)(F)F)c2)n1)c1cccs1 (stereo not drawn) [‘4042]
G13 hCB2 (Log [Compound] (M) -5.05788): 372 | G15 hCB2 (Log [Compound] (M) -5.05788): 871 | Gq hCB2 (Log [Compound] (M) -5.05788): 1851 | Gs hCB2 (Log [Compound] (M) -5.05788): 9765 | G13 hCB2 (Log [Compound] (M) -5.47381): 454 | G15 hCB2 (Log [Compound] (M) -5.47381): 873 | Gq hCB2 (Log [Compound] (M) -5.47381): 1786 | Gs hCB2 (Log [Compound] (M) -5.47381): 9415 | G13 hCB2 (Log [Compound] (M) -5.89285): 417 | G15 hCB2 (Log [Compound] (M) -5.89285): 919 | Gq hCB2 (Log [Compound] (M) -5.89285): 1814 | Gs hCB2 (Log [Compound] (M) -5.89285): 9299 | G13 hCB2 (Log [Compound] (M) -6.31878): 379 | G15 hCB2 (Log [Compound] (M) -6.31878): 911 | Gq hCB2 (Log [Compound] (M) -6.31878): 1840 | Gs hCB2 (Log [Compound] (M) -6.31878): 9425 | G13 hCB2 (Log [Compound] (M) -6.72585): 366 | G15 hCB2 (Log [Compound] (M) -6.72585): 869 | Gq hCB2 (Log [Compound] (M) -6.72585): 1780 | Gs hCB2 (Log [Compound] (M) -6.72585): 9320 | G13 hCB2 (Log [Compound] (M) -7.14267): 378 | G15 hCB2 (Log [Compound] (M) -7.14267): 865 | Gq hCB2 (Log [Compound] (M) -7.14267): 1798 | Gs hCB2 (Log [Compound] (M) -7.14267): 9628 | G13 hCB2 (Log [Compound] (M) -7.55284): 351 | G15 hCB2 (Log [Compound] (M) -7.55284): 908 | Gq hCB2 (Log [Compound] (M) -7.55284): 1838 | Gs hCB2 (Log [Compound] (M) -7.55284): 9429 | G13 hCB2 (Log [Compound] (M) -8): 336 | G15 hCB2 (Log [Compound] (M) -8): 870 | Gq hCB2 (Log [Compound] (M) -8): 1691 | Gs hCB2 (Log [Compound] (M) -8): 9233 | G13 hCB2 (Log [Compound] (M) -8.22186): 337 | G15 hCB2 (Log [Compound] (M) -8.22186): 953 | Gq hCB2 (Log [Compound] (M) -8.22186): 1914 | Gs hCB2 (Log [Compound] (M) -8.22186): 10090 | G13 hCB2 (Log [Compound] (M) -8.39794): 386 | G15 hCB2 (Log [Compound] (M) -8.39794): 901 | Gq hCB2 (Log [Compound] (M) -8.39794): 1867 | Gs hCB2 (Log [Compound] (M) -8.39794): 9624 | G13 hCB2 (Log [Compound] (M) -8.68787): 351 | G15 hCB2 (Log [Compound] (M) -8.68787): 876 | Gq hCB2 (Log [Compound] (M) -8.68787): 1937 | Gs hCB2 (Log [Compound] (M) -8.68787): 9194 | G13 hCB2 (Log [Compound] (M) -9.15521): 367 | G15 hCB2 (Log [Compound] (M) -9.15521): 910 | Gq hCB2 (Log [Compound] (M) -9.15521): 1811 | Gs hCB2 (Log [Compound] (M) -9.15521): 9196 | G13 hCB2 (Log [Compound] (M) -9.61989): 345 | G15 hCB2 (Log [Compound] (M) -9.61989): 880 | Gq hCB2 (Log [Compound] (M) -9.61989): 1785 | Gs hCB2 (Log [Compound] (M) -9.61989): 9153 | G13 hCB2 (Log [Compound] (M) -10.0969): 341 | G15 hCB2 (Log [Compound] (M) -10.0969): 856 | Gq hCB2 (Log [Compound] (M) -10.0969): 1790 | Gs hCB2 (Log [Compound] (M) -10.0969): 9401 | G13 hCB2 (Log [Compound] (M) -10.5529): 309 | G15 hCB2 (Log [Compound] (M) -10.5529): 917 | Gq hCB2 (Log [Compound] (M) -10.5529): 1878 | Gs hCB2 (Log [Compound] (M) -10.5529): 9283 | G13 hCB2 (Log [Compound] (M) -11.0177): 377 | G15 hCB2 (Log [Compound] (M) -11.0177): 837 | Gq hCB2 (Log [Compound] (M) -11.0177): 1802 | Gs hCB2 (Log [Compound] (M) -11.0177): 9354 | G13 hCB2 (Log [Compound] (M) -11.4949): 335 | G15 hCB2 (Log [Compound] (M) -11.4949): 822 | Gq hCB2 (Log [Compound] (M) -11.4949): 1866 | Gs hCB2 (Log [Compound] (M) -11.4949): 8977 | G13 hCB2 (Log [Compound] (M) -11.9208): 361 | G15 hCB2 (Log [Compound] (M) -11.9208): 904 | Gq hCB2 (Log [Compound] (M) -11.9208): 1780 | Gs hCB2 (Log [Compound] (M) -11.9208): 8976 | G13 hCB2 (Log [Compound] (M) -12.3979): 355 | G15 hCB2 (Log [Compound] (M) -12.3979): 851 | Gq hCB2 (Log [Compound] (M) -12.3979): 1758 | Gs hCB2 (Log [Compound] (M) -12.3979): 8977 | G13 hCB2 (Log [Compound] (M) -12.8861): 299 | G15 hCB2 (Log [Compound] (M) -12.8861): 809 | Gq hCB2 (Log [Compound] (M) -12.8861): 1793 | Gs hCB2 (Log [Compound] (M) -12.8861): 9246 | G13 hCB2 (Log [Compound] (M) -13): 267 and 381 | G15 hCB2 (Log [Compound] (M) -13): 851 and 879 | Gq hCB2 (Log [Compound] (M) -13): 1807 and 1732 | Gs hCB2 (Log [Compound] (M) -13): 9386 and 9439 | pEC50 (hCB2 Barr2 + GRK2): 8.26 | pEC50 (hCB2 Gi1): 8.57 | pEC50 (hCB2 Gi2): 8.89 | pEC50 (hCB2 GoB): 8.60 | Emax (read-out: Emax [95% CI], hCB2 Barr2 + GRK2): 33% | Emax (read-out: Emax [95% CI], hCB2 Gi1): 82% | Emax (read-out: Emax [95% CI], hCB2 Gi2): 70% | Emax (read-out: Emax [95% CI], hCB2 GoB): 61% | Emax (read-out: Emax [95% CI], hCB2 Gz): 56%
